Data from BindingDB's records for doi:10.1124/jpet.302.1.328 (University of North Carolina at Chapel Hill, 2002).
Several values for one entry are separate records, joined by “and”; a condition that tells them apart may be missing. Identical values can stand only once.

molecular target: Histamine H1 receptor (Cavia porcellus, UniProt P31389)
Sequence (P31389 whole entry): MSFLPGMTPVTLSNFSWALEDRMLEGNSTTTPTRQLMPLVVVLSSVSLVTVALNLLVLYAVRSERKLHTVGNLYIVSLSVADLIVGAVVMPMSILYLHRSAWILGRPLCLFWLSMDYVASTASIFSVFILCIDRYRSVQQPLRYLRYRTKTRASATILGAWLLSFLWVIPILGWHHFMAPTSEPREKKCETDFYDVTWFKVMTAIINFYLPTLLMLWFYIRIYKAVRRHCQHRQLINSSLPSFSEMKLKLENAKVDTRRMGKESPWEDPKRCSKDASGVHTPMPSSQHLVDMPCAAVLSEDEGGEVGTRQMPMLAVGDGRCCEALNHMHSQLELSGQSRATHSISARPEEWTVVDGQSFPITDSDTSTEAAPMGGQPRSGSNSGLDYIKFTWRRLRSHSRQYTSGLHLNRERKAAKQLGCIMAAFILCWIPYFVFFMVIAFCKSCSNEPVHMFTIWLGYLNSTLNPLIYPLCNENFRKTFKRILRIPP

With CN(C)[C@H]1Cc2ccccc2[C@H](c2ccccc2)C1 [trans-H2-PAT(+)] as the compound, how does the Ki read?
Its Ki is 23 nM and 11.5 nM.

How did the Ki turn out when CN(C)[C@H]1Cc2ccccc2[C@@H](c2ccccc2)C1 [cis-H2-PAT(-)] was run?
Its Ki is 3.92 nM and 4.91 nM.

Which Ki does the source give for CN(C)C1Cc2ccccc2C(c2ccccc2)C1 (stereo not drawn) [cis-H2-PAT(+/-)] here?
Its Ki is 10.9 nM and 7.87 nM and 1.53 nM and 1.37 nM.

How did the Ki turn out when Nc1nc2c(ncn2[C@@H]2O[C@H](COP(=O)(O)OP(=O)(O)OP(=O)(O)O)C(O)C2O)c(=O)[nH]1 (stereo partly drawn) [+ 1 mM GTP] was run?
Its Ki is greater than 10000 nM.

Which Ki does the source give for CN(C)[C@@H]1Cc2ccccc2[C@H](c2ccccc2)C1 [cis-H2-PAT(+)] here?
Its Ki is 53.8 nM and 77.7 nM.

For O=C(O)C=CC(=O)Oc1ccc(Cl)cc1 [NSC_6445134], which Ki is on record?
The Ki was 98 nM and 80.1 nM.

Which Ki does the source give for Cc1ccc(/C(=C\CN2CCCC2)c2ccccn2)cc1 [Actahist] here?
The Ki was 0.93 nM and 0.69 nM.

Which Ki does the source give for CN(C)[C@@H]1Cc2ccccc2[C@@H](c2ccccc2)C1 [trans-PAT] here?
The Ki was 1.15 nM and 0.58 nM.
